Data published in patent US6664224B2, “Quaternary ammonium salt and process for the preparation thereof” (priority 2000, dated 2003).

How the values were obtained:
[1] = system: Aspergillus niger IFO 6431; test: Minimum development inhibiting concentration (MIC) against fungi; type: cell-based; conditions: A. niger; spore solution, 27° C. 1 week
Description: (§1) A sample fungus which had been pre-cultured was diluted with a wetting agent-containing sterilized water according to an ordinary broth dilution method to prepare a spore solution. 1 ml of the spore solution was then mixed with 1 ml of each of chemical solutions having concentrations which vary stepwise. The mixture was then cultured at a temperature of 27° C. in an incubator for 1 week. The culture was then examined for turbidity to see if the proliferation of fungus occurred. The minimum concentration at which no turbidity occurs was defined to be MIC.
(§2) Aspergillus niger IFO 6431 (A. niger) and Candida albicans ATCC10231 (C. albicans) were used as sample microorganisms.

[2] = system: Candida albicans ATCC10231; test: as above; type: cell-based; conditions: C. albicans; spore solution, 27° C. 1 week
Description: as §1, §2

rat = test: Oral toxicity test on rat (LD50); type: in vivo
Description: The quaternary ammonium salt of the invention is a compound having an extremely high safety, i.e., LD50 (rat) of not smaller than 2,000 mg/kg in oral toxicity test on rat.
The sample 4BAMP-6C thus obtained was then determined for oral toxicity (LD50: rat). The results were greater than 2,000 mg/kg.

A. niger = test: Anti-septic power test (USP XX); type: cell-based, Aspergillus niger; conditions: test sample 0.002 wt %
Description: (§3) Solutions prepared according to the formulation set forth in Tables 10 and 11 below were subjected to anti-septic power test according to the method defined in Pharmacopoeia of the United States XX, 873 (1980). The solutions thus tested were then observed for anti-septic power after 1 hour, 4 hours, 24 hours, 7 days, 14 days, 21 days and 28 days. As test microorganisms, E. coli, P. auru. and S. Aureus were used as bacteria and A. niger and C. albicans were used as fungi. 4BAMP-6C and benzalkonium chloride were used as test samples.

C. albicans = test: Anti-septic power test (USP XX); type: cell-based, Candida albicans; conditions: test sample 0.002 wt %
Description: as §3

E. coli = test: Anti-septic power test (USP XX); type: cell-based, Escherichia coli; conditions: test sample 0.002 wt %
Description: as §3

[3] = Interaction with eye drop components (visual transparency); type: physicochemical; conditions: for Results (transparency of neutralized solution): in 1% sodium chloride solution
Description: Eye drop components and the preservative of the invention were dissolved in a 1% sodium chloride solution. The solution was then neutralized with a proper amount of diluted hydrochloric acid or sodium hydroxide. The neutralized solution thus obtained was then visually observed for transparency. Chondroitin sodium sulfate (hereinafter abbreviated as “SKA”), sodium hyaluronate (hereinafter abbreviated as “SHA”), sodium cromoglicate (hereinafter abbreviated as “SCA”), sodium dimethylisopropylazulenesulfonate (hereinafter abbreviated as “SDPA”), and flavin-adenine dinucleotide (hereinafter abbreviated as “FA”) were used as the eye drop components. 4BAMP-6C (Example 1) and benzalkonium chloride (Comparative Example 1) were used as test samples of preservative.

cornea = conditions: reported; eye drop; cited from earlier work
[4] = Formulation 1 (chondroitin sodium sulfate 1 wt %)

In the case of “1,4-bis(N,N-dihexyl-N-methylammoniomethyl)phenylene dichloride [Example 4BAMP-6C]”, the MIC [1] is reported as 16 ppm, the MIC [2] is reported as 4 ppm and the “oral toxicity LD50” value (rat) is reported as “greater than 2,000 mg/kg”. For the same substance, the “time at which the desired anti-septic effect was confirmed” value (shortened to “time”) (A. niger; [4]) was 7 days, the “time” value (A. niger; Formulation 2 (taurin 1 wt %)) was 14 days and the “time” value (C. albicans; [4]) was 7 days. For the same substance, the “time” value (C. albicans; Formulation 2 (taurin 1 wt %)) was 7 days, the “time” value (E. coli; [4]) was 1 h and the “time” value (E. coli; Formulation 2 (taurin 1 wt %)) was 1 h. For the same substance, the “Results (transparency of neutralized solution)” value (shortened to “Results”) ([3]; FA 0.1%, 4BAMP-6C 0.1%) was “Transparent”, the “Results” value ([3]; SCA 3%, 4BAMP-6C 0.1%) was “Transparent” and the “Results” value ([3]; SDPA 0.05%, 4BAMP-6C 0.1%) was “Transparent”. The “Results” value ([3]; SHA 0.2%, 4BAMP-6C 0.1%) was “Transparent” and the “Results” value ([3]; SKA 3%, 4BAMP-6C 0.1%) was “Transparent”.

With “benzalkonium chloride [reference compound]” the MIC [1] was 32 ppm, the MIC [2] was 16 ppm and the “time” value (A. niger; [4]) was 28 days. The “time” value (A. niger; Formulation 2 (taurin 1 wt %)) was 28 days, the “time” value (C. albicans; [4]) was 21 days and the “time” value (C. albicans; Formulation 2 (taurin 1 wt %)) was 21 days. For the same substance, the “time” value (E. coli; [4]) was 24 hrs. hr, the “time” value (E. coli; Formulation 2 (taurin 1 wt %)) was 24 hrs. hr and the “Results” value ([3]; FA 0.1%, benzalkonium chloride 0.01%) was “Clouded”. The “Results” value ([3]; SCA 3%, benzalkonium chloride 0.01%) was “Clouded”, the “Results” value ([3]; SDPA 0.05%, benzalkonium chloride 0.01%) was “Clouded” and the “Results” value ([3]; SHA 0.2%, benzalkonium chloride 0.01%) was “Clouded”. For the same substance, the “Results” value ([3]; SKA 3%, benzalkonium chloride 0.01%) was “Clouded”, the “transparency of solutions with eye drop components” value ([3]; summary of Table 9) was “slightly opaque” and the “amount incorporated at which the cornea is damaged” value (cornea) was no less than 0.01%.
